{"source": "patent US11643419B2", "about": "“Compositions and methods for the treatment of xerostomia” (Cellix Bio Private Limited, priority 2016, dated 2023)", "key": {"[1]": {"tested_on": "oral pathogenic microorganisms", "conditions": "cited from earlier work; for antimicrobial activity (in words): among long-chain fatty acids / against various oral microorganisms"}, "[2]": {"tested_on": "C. albicans", "conditions": "cited from earlier work"}, "[3]": {"tested_on": "Candida Species", "assay": "MIC against Candida Species", "format": "cell-based", "conditions": "printed conversion of 0.45 μmoles/ml"}, "[4]": {"tested_on": "Candida Species", "conditions": "cited from earlier work"}}, "note": "Like-named read-outs stand apart in the source and are kept apart here.", "data": [{"smiles": "CCCCCCCCCCCCCCCC(=O)O", "note": "[palmitic acid]", "values": [{"measurement": "antimicrobial activity (in words)", "setting": "[1]", "result": "greatest antimicrobial activity"}]}, {"smiles": "CCCCC/C=C\\C/C=C\\C/C=C\\CCCCC(=O)O", "note": "[GLA, gamma linoleic acid]", "values": [{"measurement": "antimicrobial activity (in words)", "setting": "[1]", "result": "antimicrobial activities"}, {"measurement": "antimicrobial activity (in words)", "setting": "[1]; listed as 7-linoleic acid", "result": "greatest antimicrobial activity"}, {"measurement": "antimicrobial activity (in words)", "setting": "[1]; listed as gamma linoleic acid", "result": "significant anti-microbial activity"}, {"measurement": "bactericidal at a concentration of", "setting": "[1]; n-6 fatty acids GLA", "result": 25, "unit": "µg/mL"}]}, {"smiles": "CCCCC/C=C\\C/C=C\\C/C=C\\C/C=C\\CCCC(=O)O", "note": "[arachidonic acid]", "values": [{"measurement": "antimicrobial activity (in words)", "setting": "[1]", "result": "greatest antimicrobial activity"}]}, {"smiles": "CCCCC/C=C\\C/C=C\\CCCCCCCC(=O)O", "note": "[Linoleic acid]", "values": [{"measurement": "activity against C. albicans", "setting": "[2]", "result": "< 40", "unit": "%"}, {"measurement": "MIC", "setting": "[3]", "result": 0.13, "unit": "µg/mL"}, {"measurement": "MIC", "setting": "[4]", "result": 450, "unit": "µM"}, {"measurement": "antimicrobial activity (in words)", "setting": "[1]", "result": "greatest antimicrobial activity"}, {"measurement": "bactericidal at a concentration of", "setting": "[1]; linoleic acid", "result": 25, "unit": "µg/mL"}]}, {"smiles": "CCCCCC/C=C\\CCCCCCCC(=O)O", "note": "[palmitoleic acid]", "values": [{"measurement": "antimicrobial activity (in words)", "setting": "[1]", "result": "greatest antimicrobial activity"}]}]}
